Tests used:
Assay in all cases: relative viability (nuclei count vs DMSO), 5 days (fraction); higher = more cells survive
Decitabine + Pictilisib = compound: Nc1ncn([C@H]2C[C@H](O)[C@@H](CO)O2)c(=O)n1 [Decitabine] + CS(=O)(=O)N1CCN(Cc2cc3nc(-c4cccc5[nH]ncc45)nc(N4CCOCC4)c3s2)CC1 [Pictilisib] (partner 1 µM)
How it was run: (§1)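 Cells from lung cancer lines were seeded into 1536-well plates and, one day later, dosed by pin tool. Treatments were either a single drug or a fixed dose of an anchor drug with five library-drug doses (not always all listed) in √10 steps. After 5 days, nuclei were stained in a one-step fixation (final 0.05% Triton X-100, 1% formaldehyde, 1 ug/ml Hoechst) and counted on 4× images, and relative viability is the treated-to-vehicle nuclei ratio, as the median of duplicate plates.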

Decitabine + Olaparib = compound: Nc1ncn([C@H]2C[C@H](O)[C@@H](CO)O2)c(=O)n1 [Decitabine] + O=C(c1cc(Cc2n[nH]c(=O)c3ccccc23)ccc1F)N1CCN(C(=O)C2CC2)CC1 [Olaparib] (partner 8 µM)
How it was run: as §1

Halofuginone + Alpelisib = compound: O=C(C[C@H]1NCCC[C@@H]1O)Cn1cnc2cc(Br)c(Cl)cc2c1=O (racemic) [Halofuginone] + Cc1nc(NC(=O)N2CCC[C@H]2C(N)=O)sc1-c1ccnc(C(C)(C)C(F)(F)F)c1 [Alpelisib] (partner 2 µM)
How it was run: as §1

Decitabine + Crizotinib = compound: Nc1ncn([C@H]2C[C@H](O)[C@@H](CO)O2)c(=O)n1 [Decitabine] + C[C@@H](Oc1cc(-c2cnn(C3CCNCC3)c2)cnc1N)c1c(Cl)ccc(F)c1Cl [Crizotinib] (partner 1 µM)
How it was run: as §1

Work on UMC-11 yielded a relative viability (Decitabine + Pictilisib; first compound 0.04 µM) of 0.737, a relative viability (Decitabine + Pictilisib; first compound 0.1265 µM) of 0.794 and a relative viability (Decitabine + Pictilisib; first compound 0.4 µM) of 0.315. For the same cell line, the relative viability (Decitabine + Pictilisib; first compound 1.265 µM) was 0.335, the relative viability (Decitabine + Pictilisib; first compound 4 µM) was 0.271 and the relative viability (Decitabine + Olaparib; first compound 0.04 µM) was 0.312. The relative viability (Decitabine + Olaparib; first compound 0.1265 µM) was 0.301, the relative viability (Decitabine + Olaparib; first compound 0.4 µM) was 0.273 and the relative viability (Decitabine + Olaparib; first compound 1.265 µM) was 0.218. For the same cell line, the relative viability (Decitabine + Olaparib; first compound 4 µM) was 0.2, the relative viability (Halofuginone + Alpelisib; first compound 0.001 µM) was 1.04 and the relative viability (Halofuginone + Alpelisib; first compound 0.003162 µM) was 0.909. The relative viability (Halofuginone + Alpelisib; first compound 0.01 µM) was 0.989, the relative viability (Halofuginone + Alpelisib; first compound 0.03162 µM) was 0.885 and the relative viability (Halofuginone + Alpelisib; first compound 0.1 µM) was 0.457. It also gave a relative viability (Decitabine + Crizotinib; first compound 0.04 µM) of 0.483, a relative viability (Decitabine + Crizotinib; first compound 0.1265 µM) of 0.451 and a relative viability (Decitabine + Crizotinib; first compound 0.4 µM) of 0.398. The relative viability (Decitabine + Crizotinib; first compound 1.265 µM) was 0.209 and the relative viability (Decitabine + Crizotinib; first compound 4 µM) was 0.168.

From the supplement of paper PMC10307832
